Reference: US20220281930A1, “COMPOSITIONS AND METHODS FOR THE TREATMENT OF PATHOLOGICAL PAIN AND ITCH” (DUKE UNIVERSITY, priority 2019, published 2022)

Experiments:
[1] = tested on: ß-catenin (ß-cat); assay: Phosphoproteomics in rat primary cortical neurons, ß-cat; type: cell-based; details: 1 μM KP
Method: Cultured rat primary cortical neurons were treated with either vehicle DMSO (0.1%) or 1 μM KP for 1 h/24 h. Cells were lysed in non-detergent-containing buffer (Tris.Cl pH8 50 mM, NaCl 150 mM, 0.5% Phosphatase Inhibitor (Pierce #88667) and Protease Inhibitor (Roche #11836153001)). 500 μL was removed and solid urea was added to a final concentration of 8M. Samples were sonicated for further solubilization. After clearing of insoluble material by centrifugation, protein concentration was measured by Bradford assay. 250 μg of total protein was removed from each sample and solubilization buffer was added to normalize all samples to 0.93 μg/μL protein. Samples were then spiked with bovine alpha-casein to 30 fmol/μg of total protein. Samples were reduced with 10 mM DTT at 32° C. for 45 min and then alkylated with 20 mM iodoacetamide at room temperature for 30 min. […]
TiO2 Enrichment. […] After cleanup using a C18 STAGE tip, and resuspension in 2% acetonitrile, 0.1% TFA, 10 mM citric acid samples were quantified.
Quantitative analysis of Phosphopeptide Enriched Samples. Quantitative LC-MS/MS was performed in singlicate (4 uL=33% of the total sample each injection) for phosphopeptide-enriched samples using a nanoAcquity UPLC system (Waters Corp) coupled to a Thermo QExactive Plus high resolution accurate mass tandem mass spectrometer (Thermo) via a nanoelectrospray ionization source. […]

[2] = tested on: delta-cat binding to KCC2 promoter; assay: ChIP with anti-delta-cat antibody at KCC2 promoter; type: cell-based, rat; details: KP-treatment vs vehicle
Method: ChIP assay was carried out as described previously (Yeo et al., 2009, J Neurosci 29:14652-14662; Yeo et al., 2013, Proc Natl Acad Sci USA 110:4315-4320). Primary cortical neurons (0.7×10^6) were used for each ChIP experiment. Cells were crosslinked with 1% formaldehyde for 30 min, washed twice with cold PBS, resuspended in lysis buffer [1% SDS, 10 mm EDTA, and 50 mm Tris-HCl, pH 8.0, with protease inhibitor cocktail (Roche)], and sonicated for 15 s pulses. The lysates were clarified by centrifugation at 10,000 rpm for 10 min at 4° C. in a microcentrifuge. One-tenth of the total lysate was used as input control of genomic DNA. Supernatants were collected and diluted in buffer (1% Triton X-100, 2 mm EDTA, 150 mm NaCl, 20 mm Tris-HCl, pH 8.0, and protease inhibitor cocktail) followed by immunoclearing with 1 mg of salmon sperm DNA, 10 ml of rabbit IgG, and 20 ml of protein A/G-Sepharose (Santa Cruz Biotechnology) for 1 h at 4° C. Immunoprecipitation was performed overnight at 4° C. with 2 mg of each specific antibody. Precipitates were washed sequentially for 10 min each in TSE1 buffer (0.1% SDS, 1% Triton X-100, 2 mm EDTA, 150 mm NaCl, and 20 mm Tris-HCl, pH 8.0), TSE2 (TSE1 with 500 mm NaCl), and TSE3 (0.25 m LiCl, 1% NP-40, 1% deoxycholate, 1 mm EDTA, and 10 mm Tris-HCl, pH 8.0). Precipitates were then washed twice with 10 mm Tris/0.1 mm EDTA, pH 7.8 and extracted with 1% SDS containing 0.1 m NaHCO3. Eluates were pooled and heated at 65° C. for 4 h to reverse formaldehyde crosslinking. DNA fragments were purified with Qiagen Qiaquick spin kit. For ChIP PCR, 1 l of a 25 l DNA extraction was used.
Consequently, catenins effects on the KCC2 promoter was explored.

O=C1Cc2c([nH]c3ccc(Br)cc23)-c2ccccc2N1 [kenpaullone, 9-bromo-7,12-dihydro-indolo [3,2-d] [1]benzazepin-6(5H)-one]
differential phosphorylation of ß-cat [1]: not significantly differentially phosphorylated | binding of delta-cat to Kaiso1 site [2]: significantly reduced binding | binding of delta-cat to Kaiso2 site [2]: significantly increases binding | binding of delta-cat to TCF site [2]: non-significant increase
